pIC50: −log10 of the molar value. Where two headings read alike, the source gives them in different places.
Assays:
NAMPT = biological target: T1, NAMPT (Homo sapiens, UniProt P43490); experiment: Biochemical inhibition assay: NAMPT enzymatic reaction, NMN quantified by mass spectrometry; settings: read-out: Biochem IC50
T1 construct: His tag; host or cells: E. coli
Protocol: Biochemical Inhibition Assay
NAMPT Protein Purification
Recombinant His-tagged NAMPT was produced in E. coli cells, purified over a Ni column, and further purified over a size-exclusion column by XTAL Biostructures.
The NAMPT Enzymatic Reaction
The NAMPT enzymatic reactions were carried out in Buffer A (50 mM Hepes pH 7.5, 50 mM NaCl, 5 mM MgCl2, and 1 mM THP) in 96-well V-bottom plates. The compound titrations were performed in a separate dilution plate by serially diluting the compounds in DMSO to make a 100× stock. […] The compound and enzyme mix was incubated for 15 minutes at room temperature, then 10 μL of 10× substrate and co-factors in Buffer A were added to the test well to make a final concentration of 1 μM NAM, 100 μM 5-Phospho-D-ribose 1-diphosphate (PRPP), and 2.5 mM Adenosine 5′-triphosphate (ATP). The reaction was allowed to proceed for 30 minutes at room temperature, then was quenched with the addition of 11 μL of a solution of formic acid and L-Cystathionine to make a final concentration of 1% formic acid and 10 μM L-Cystathionine. Background and signal strength was determined by addition (or non-addition) of a serial dilution of NMN to a pre-quenched enzyme and cofactor mix.
A mass spectrometry-based assay was used to measure the NAMPT reaction product (NMN) and the internal control (L-Cystathionine). NMN and L-Cystathionine were detected using the services of Biocius Lifesciences with the RapidFire system. In short, the NMN and L-Cystathionine are bound to a graphitic carbon cartridge in 0.1% formic acid, eluted in 30% acetonitrile buffer, and injected into a Sciex 4000 mass spectrometer. The components of the sample were ionized with electrospray ionization and the positive ions were detected. […] The fragments are quantified and the analyzed by the following method.
First the NMN signal is normalized to the L-Cystathionine signal by dividing the NMN signal by the L-Cystathionine signal for each well. The signal from the background wells are averaged and subtracted from the test plates. […] IC50s are Determined Using Excel and this Formula.

A2780 cells = experiment: In-vitro cell proliferation assay (SRB), A2780 cells; type: cell-based; settings: Homo sapiens, A2780, 72 h, A2780 cells, 72 hours, read-out: A2780 IC50
Protocol: In-Vitro Cell Proliferation Assay
After overnight incubation at 37° C. and 5% CO2, the compound titrations were performed in a separate dilution plate by serially diluting the compounds in DMSO to make a 1000× stock. The compounds were then further diluted to 10× final concentration in culture media, whereupon 20 μL of each dilution was added to the plated cells with controls (e.g. DMSO and blank) to make a final volume of 200 μL. The final DMSO concentration in each well was 0.1%. The plates were then incubated for 72 hours at 37° C. in a 5% CO2 incubator. The number of viable cells was then assessed using sulforhodamine B (SRB) assay. Cells were fixed at 4° C. for 1 hour with the addition of 50 μL 30% trichloroacetic acid (TCA) to make a final concentration of 6% TCA. The plates were washed four times with H2O and allowed to dry for at least 1 hour, whereupon 100 μL of a 4% SRB in 1% acetic acid solution was added to each well and incubated at room temperature for at least 30 minutes. The plates were then washed three times with 1% acetic acid, dried, and treated with 100 μL of 10 mM Tris-Base solution. The plates were then read in a microplate reader at an absorbance of 570 nm. Background was generated on a separate plate with media only.
Method for Determining % Inhibition
First, the signals from the background plate are averaged, then the background was subtracted from the test plates.
wherein X denotes the compound concentration 1, Y denotes the compound concentration 2, XX denotes the % inhibition at compound concentration 1 (X), and YY denotes the % inhibition at compound concentration 2 (Y).

T1 sequence (P43490 whole entry): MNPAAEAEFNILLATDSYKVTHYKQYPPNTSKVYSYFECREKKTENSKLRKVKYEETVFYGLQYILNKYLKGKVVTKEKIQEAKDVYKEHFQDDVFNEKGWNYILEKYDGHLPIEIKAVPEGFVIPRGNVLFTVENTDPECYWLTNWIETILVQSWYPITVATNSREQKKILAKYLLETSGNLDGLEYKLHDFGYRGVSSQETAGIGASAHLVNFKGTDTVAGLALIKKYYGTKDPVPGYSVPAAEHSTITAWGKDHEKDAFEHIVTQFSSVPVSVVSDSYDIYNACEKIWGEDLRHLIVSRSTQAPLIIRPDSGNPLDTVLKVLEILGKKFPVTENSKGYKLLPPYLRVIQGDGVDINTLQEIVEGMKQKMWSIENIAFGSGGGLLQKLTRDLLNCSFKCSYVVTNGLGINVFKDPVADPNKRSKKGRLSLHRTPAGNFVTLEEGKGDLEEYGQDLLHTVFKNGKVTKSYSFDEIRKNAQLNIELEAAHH

SMILES | pIC50 (NAMPT; NAMPT enzymatic reaction) | pIC50 (A2780 cells; SRB) | pIC50 (NAMPT; NAMPT enzymatic assay) | pIC50 (A2780 cells; SRB assay)
COc1c(C)cc(S(=O)(=O)c2ccc(CNC(=O)c3cc4ccncc4s3)cc2)cc1C | 8.01 | 9.05 |  | 
O=C(NCc1ccc(S(=O)(=O)c2ccccc2Oc2ccccc2)cc1)c1ccc2nccn2c1 [N-({4-[(2-phenoxybenzene)sulfonyl]phenyl}methyl)imidazo[1,2-a]pyridine-6-carboxamide] | 7.20 | 7.22 |  | 
CN1CCN(c2ccc(S(=O)(=O)c3ccc(CNC(=O)c4ccc5nccn5c4)cc3)cc2)CC1 |  | 9.70 | 9.00 | 
COc1c(C)cc(S(=O)(=O)c2ccc(CNC(=O)c3cnc4nccn4c3)cc2)cc1C | 8.57 | 8.89 |  | 
CCOc1ccc(S(=O)(=O)c2ccc(CNC(=O)c3cc4ccncc4s3)cc2)c(C)c1 | 8.92 | 7.88 |  | 
CC(C)COc1cccc(S(=O)(=O)c2ccc(CNC(=O)c3cc4cnccc4[nH]3)cc2)c1 [N-[(4-{[3-(2-methylpropoxy)benzene]sulfonyl}phenyl)methyl]-1H-pyrrolo[3,2-c]pyridine-2-carboxamide] |  | 7.84 | 7.49 | 
O=C(NCc1ccc(S(=O)(=O)c2cccc3cccnc23)cc1)c1cnc2nccn2c1 [N-{[4-(quinoline-8-sulfonyl)phenyl]methyl}imidazo[1,2-a]pyrimidine-6-carboxamide] |  | 7.56 | 8.52 | 
COc1cc(S(=O)(=O)c2ccc(CNC(=O)c3cnc4[nH]ncc4c3)cc2)ccc1C [N-({4-[(3-methoxy-4-methylbenzene)sulfonyl]phenyl}methyl)-1H-pyrazolo[3,4-b]pyridine-5-carboxamide] | 8.44 | 8.47 |  | 
O=C(NCc1ccc(S(=O)(=O)c2cnc(N3CCCC3)s2)cc1)c1cc2ccncc2s1 [N-({4-[2-(pyrrolidin-1-yl)-1,3-thiazole-5-sulfonyl]phenyl}methyl)thieno[2,3-c]pyridine-2-carboxamide] |  | 9.15 | 8.82 | 
O=C(NCc1ccc(S(=O)(=O)c2ccc(C(F)(F)F)c(F)c2)cc1)c1cnc2nccn2c1 |  | 8.16 | 8.39 | 
O=C(NCc1ccc(S(=O)(=O)c2ccc(OC(F)(F)F)c(F)c2)cc1)c1cnc2[nH]ncc2c1 [N-[(4-{[3-fluoro-4-(trifluoromethoxy)benzene]sulfonyl}phenyl)methyl]-1H-pyrazolo[3,4-b]pyridine-5-carboxamide] |  | 7.86 | 7.76 | 
O=C(NCc1ccc(S(=O)(=O)c2cccc3c2OCC3)cc1)c1cc2cnccc2[nH]1 [N-{[4-(2,3-dihydro-1-benzofuran-7-sulfonyl)phenyl]methyl}-1H-pyrrolo[3,2-c]pyridine-2-carboxamide] |  | 8.42 | 7.85 | 
CCCOc1ccccc1NS(=O)(=O)c1ccc(CNC(=O)c2cc3cnccc3[nH]2)cc1 [N-({4-[(2-propoxyphenyl)sulfamoyl]phenyl}methyl)-1H-pyrrolo[3,2-c]pyridine-2-carboxamide] | 7.28 |  |  | 7.00
Cc1cc(C)n(-c2cccc(S(=O)(=O)c3ccc(CNC(=O)c4ccc5nccn5c4)cc3)c2)n1 |  | 9.10 | 8.14 | 
O=C(NCc1ccc(S(=O)(=O)c2cc(C(F)(F)F)ccc2OCc2ccccc2)cc1)c1cnc2[nH]ncc2c1 [N-[(4-{[2-(benzyloxy)-5-(trifluoromethyl)benzene]sulfonyl}phenyl)methyl]-1H-pyrazolo[3,4-b]pyridine-5-carboxamide] |  | 6.00 to 7.00 | 6.00 to 7.00 | 
O=C(NCc1ccc(S(=O)(=O)c2ccc(Cl)cc2C(F)(F)F)cc1)c1cc2ccncc2s1 |  | 8.02 | 8.15 | 
Cc1cc(S(=O)(=O)c2ccc(CNC(=O)c3cc4cnccc4[nH]3)cc2)c(C)cc1F | 7.29 | 7.89 |  | 
Cc1cc(-n2cccn2)ccc1S(=O)(=O)c1ccc(CNC(=O)c2ccc3nccn3c2)cc1 [N-[(4-{[2-methyl-4-(1H-pyrazol-1-yl)benzene]sulfonyl}phenyl)methyl]imidazo[1,2-a]pyridine-6-carboxamide] |  | 8.44 | 8.10 | 

SMILES | pIC50 (NAMPT; NAMPT enzymatic reaction) | pIC50 (A2780 cells; SRB) | pIC50 (NAMPT; NAMPT enzymatic assay) | pIC50 (A2780 cells; SRB assay)
O=C(NCc1ccc(S(=O)(=O)c2cncc3ccccc23)cc1)c1cc2cnccc2[nH]1 [N-{[4-(isoquinoline-4-sulfonyl)phenyl]methyl}-1H-pyrrolo[3,2-c]pyridine-2-carboxamide] |  | 8.80 | 7.96 | 
CC(C)Oc1cc(F)ccc1S(=O)(=O)c1ccc(CNC(=O)c2cc3cnccc3[nH]2)cc1 |  | 8.48 | 7.60 | 
O=C(NCc1ccc(S(=O)(=O)c2ccc(C(F)(F)F)c(F)c2)cc1)c1cc2cnccc2[nH]1 [N-[(4-{[3-fluoro-4-(trifluoromethyl)benzene]sulfonyl}phenyl)methyl]-1H-pyrrolo[3,2-c]pyridine-2-carboxamide] |  | 7.89 | 7.99 | 
CCCCc1ccc(S(=O)(=O)c2ccc(CNC(=O)c3cc4ccncc4s3)cc2)cc1 | 8.54 | 7.59 |  | 
O=C(NCc1ccc(S(=O)(=O)c2cc(Cl)cc(Cl)c2)cc1)c1cc2ccncc2s1 [N-({4-[(3,5-dichlorobenzene)sulfonyl]phenyl}methyl)thieno[2,3-c]pyridine-2-carboxamide] | 8.22 |  |  | 9.15
Cc1cc(S(=O)(=O)c2ccc(CNC(=O)c3cnc4[nH]ncc4c3)cc2)ccc1F | 8.30 | 8.08 |  | 
O=C(NCc1ccc(S(=O)(=O)c2cc(F)ccc2F)cc1)c1cnc2[nH]ncc2c1 | 6.00 to 7.00 | 6.41 |  | 
CCc1cccc(S(=O)(=O)c2ccc(CNC(=O)c3cc4ccncc4s3)cc2)c1 [N-({4-[(3-ethylbenzene)sulfonyl]phenyl}methyl)thieno[2,3-c]pyridine-2-carboxamide] | 8.22 |  |  | 8.57
CCCCOc1ccc(S(=O)(=O)c2ccc(CNC(=O)c3ccc4nccn4c3)cc2)c(C)c1 | 8.00 | 7.65 |  | 
O=C(NCc1ccc(S(=O)(=O)c2ccc(C3CCCCC3)cc2)cc1)c1cc2ccncc2s1 | 8.47 | 7.89 |  | 
O=C(NCc1ccc(S(=O)(=O)c2cc(F)cc(Cl)c2)cc1)c1cc2cnccc2[nH]1 | 8.00 | 8.85 |  | 
O=C(NCc1ccc(S(=O)(=O)c2csc(-c3cccc(F)c3)n2)cc1)c1cnc2[nH]ncc2c1 [N-({4-[2-(3-fluorophenyl)-1,3-thiazole-4-sulfonyl]phenyl}methyl)-1H-pyrazolo[3,4-b]pyridine-5-carboxamide] |  | 7.22 | 7.57 | 
CCCCOc1cc(F)ccc1S(=O)(=O)c1ccc(CNC(=O)c2cc3ccncc3o2)cc1 | 7.47 | 7.18 |  | 
O=C(NCc1ccc(S(=O)(=O)c2ccc(OC(F)(F)F)c(F)c2)cc1)c1cc2ccncc2o1 |  | 7.81 | 8.00 | 
O=C(NCc1ccc(S(=O)(=O)c2cccc3ccsc23)cc1)c1cc2ccncc2s1 [N-{[4-(1-benzothiophene-7-sulfonyl)phenyl]methyl}thieno[2,3-c]pyridine-2-carboxamide] |  | 8.82 | 8.82 | 
CCCCOc1cc(F)ccc1S(=O)(=O)c1ccc(CNC(=O)c2cc3ccncc3s2)cc1 | 8.15 | 8.20 |  | 
Cc1ncccc1S(=O)(=O)c1ccc(CNC(=O)c2cc3cnccc3[nH]2)cc1 [N-{[4-(2-methylpyridine-3-sulfonyl)phenyl]methyl}-1H-pyrrolo[3,2-c]pyridine-2-carboxamide] |  | 7.62 | 6.74 | 
Cc1ccncc1S(=O)(=O)c1ccc(CNC(=O)c2cc3ccncc3o2)cc1 [N-{[4-(4-methylpyridine-3-sulfonyl)phenyl]methyl}furo[2,3-c]pyridine-2-carboxamide] |  | 7.21 | 7.60 | 

Reference: patent US12336981B2, “Compounds and compositions for the inhibition of NAMPT” (Valo Health, Inc., priority 2010, dated 2025)
